The results in this text go back to patent publication US8642642B2, “Heterocyclic arylsulphones suitable for treating disorders that respond to modulation of the serotonin 5HT6 receptor” (Abbott Laboratories, priority 2006, dated 2014).

One assay has as its target T1, human 5-HT6 receptor (Homo sapiens, UniProt P50406).
T1 construct: expressed in transfected cells
In words: Human 5-HT6 receptor binding assay (3H-LSD displacement). Conditions: membranes from HEK-293 cells, 2 nM 3H-LSD. How it is done: (§1) The substance to be tested was either dissolved in methanol/Chremophor® (BASF-AG) or in dimethyl sulfoxide and then diluted with water to the desired concentration.
The compounds were dissolved in a concentration of 10^−2 M or 10^−3 M in DMSO. Further dilutions were performed in incubation buffer.
The procedure for the binding assay was based on the method of Monsma et al. (1993) Mol Pharmacol 43: 320-327. The binding reaction was carried out in a total volume of 0.250 ml for 60 min at 37° C. Membranes from HEK-293 cells stably expressing the human 5-HT6 receptor were incubated with 2 nM ^3H-LSD in the presence or absence of various concentrations of test compound for 60 min at 37° C. Non-specific binding was defined with 100 μM Serotonin (5-HT). Assays were performed in duplicate. Bound and free radioligand was separated by filtration and bound radioactivity determined by liquid scintillation counting.
The specific ligand binding to the receptors was defined as the difference between the total binding and the nonspecific binding determined in the presence of an excess of unlabelled 5-HT. The results are expressed as a percent of control specific binding obtained in the presence of compound. The IC50 values (concentration causing a half-maximal inhibition of control specific binding) and Hill coefficients (nH) were determined by non-linear regression analysis of the competition curves using Hill equation curve fitting.
The inhibition constants (Ki) were calculated from the Cheng Prusoff equation (Ki=IC50/(1+(L/KD)), where L=concentration of radioligand in the assay, and KD=affinity of the radioligand for the receptor).

Assay [1] deals with T2, human dopamine D3 receptors (Homo sapiens, UniProt P35462).
T2 construct: expressed in transfected cells
In words: Dopamine D3 receptor binding ([125I]-iodosulpride). Conditions: for Ki: membranes from HEK-293 cells, 0.1 nM [125I]-iodosulpride; for Ki(D2)/Ki(D3): ratio of receptor binding constants, D2L versus D3. As to the method: as §1
Each assay mixture was run in triplicate.
The incubation buffer contained 50 mM tris, 120 mM NaCl, 5 mM KCl, 2 mM CaCl2, 2 mM MgCl2 and 0.1% bovine serum albumin, 10 μM quinolone and 0.1% ascorbic acid (prepared fresh daily). The buffer was adjusted to pH 7.4 with HCl.
After having been incubated at 25° C. for 60 minutes, the assay mixtures were filtered through a Whatman GF/B glass fiber filter under vacuum using a cell collecting device. The filters were transferred to scintillation viols using a filter transfer system. After 4 ml of Ultima Gold® (Packard) have been added, the samples were shaken for one hour and the radioactivity was then counted in a Beta-Counter (Packard, Tricarb 2000 or 2200CA). The cpm values were converted into dpm using a standard quench series and the program belonging to the instrument.
The inhibition curves were analyzed by means of iterative nonlinear regression analysis using the Statistical Analysis System (SAS) which is similar to the “LIGAND” program described by Munson and Rodbard.

T1 sequence (P50406 whole entry): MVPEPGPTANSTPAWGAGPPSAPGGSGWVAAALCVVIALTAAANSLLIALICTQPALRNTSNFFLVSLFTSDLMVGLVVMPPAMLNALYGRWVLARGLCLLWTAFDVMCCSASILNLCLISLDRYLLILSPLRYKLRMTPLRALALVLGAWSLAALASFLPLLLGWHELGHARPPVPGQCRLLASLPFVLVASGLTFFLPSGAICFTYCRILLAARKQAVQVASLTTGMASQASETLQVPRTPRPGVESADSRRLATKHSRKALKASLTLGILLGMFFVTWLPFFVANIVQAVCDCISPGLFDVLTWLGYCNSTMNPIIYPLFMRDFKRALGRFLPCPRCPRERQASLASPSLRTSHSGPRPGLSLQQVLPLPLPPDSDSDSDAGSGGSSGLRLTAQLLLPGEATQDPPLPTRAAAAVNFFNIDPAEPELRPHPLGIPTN
T2 sequence (P35462 whole entry): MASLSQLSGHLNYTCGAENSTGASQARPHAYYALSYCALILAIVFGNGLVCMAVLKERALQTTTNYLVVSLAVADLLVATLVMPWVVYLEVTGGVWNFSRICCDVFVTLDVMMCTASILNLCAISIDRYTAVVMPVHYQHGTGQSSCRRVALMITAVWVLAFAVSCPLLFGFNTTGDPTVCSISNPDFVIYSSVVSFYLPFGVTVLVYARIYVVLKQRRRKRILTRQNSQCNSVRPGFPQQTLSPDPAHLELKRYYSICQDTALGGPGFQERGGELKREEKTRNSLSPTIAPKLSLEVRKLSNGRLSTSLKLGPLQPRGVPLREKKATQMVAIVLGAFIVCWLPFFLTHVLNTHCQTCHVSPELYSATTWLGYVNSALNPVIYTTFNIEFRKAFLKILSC

As for `CCCN1CC[C@@H](c2ccc(NS(=O)(=O)c3cc(Cl)c(Cl)s3)cc2)C1.Cl` [Example 74, 4,5-Dichloro-thiophene-2-sulfonic acid [4-((S)-1-propyl-pyrrolidin-3-yl)-phenyl]-amide hydrochloride], the Ki – broadly, the equilibrium dissociation constant of an inhibitor or competing ligand from its target – on human 5-HT6 receptor was 1 to 10 nM; in assay [1], 10 to 50 nM. Besides, the “Ki(D2)/Ki(D3)” value in assay [1] was “++ (between 50 and 100)”.

As for `CCCN1CC[C@@H](c2ccc(NS(=O)(=O)c3ccc(-n4cccn4)s3)cc2)C1.Cl` [Example 73, 5-Pyrazol-1-yl-thiophene-2-sulfonic acid [4-((S)-1-propyl-pyrrolidin-3-yl)-phenyl]-amide hydrochloride], the Ki is 10 to 50 nM at human 5-HT6 receptor and 1 to 10 nM in assay [1]. Besides, the “Ki(D2)/Ki(D3)” value in assay [1] is “++ (between 50 and 100)”.

`CCCN1CC[C@@H](c2ccc(NS(=O)(=O)c3ccc(-c4ccccn4)s3)cc2)C1.Cl` [Example 66, 5-Pyridin-2-yl-thiophene-2-sulfonic acid [4-((S)-1-propyl-pyrrolidin-3-yl)-phenyl]-amide hydrochloride]: the Ki is 10 to 50 nM at human 5-HT6 receptor and less than 1 nM in assay [1]. In addition, the “Ki(D2)/Ki(D3)” value in assay [1] is “+++ (between 100 and 150)”.

In turn, `CCCN1CC[C@@H](c2ccc(NS(=O)(=O)c3cccc(Cl)c3)cc2)C1` [Example 98, 3-Chloro-N-[4-((S)-1-propyl-pyrrolidin-3-yl)-phenyl]-benzenesulfonamide] registered a Ki on human 5-HT6 receptor of 1 to 10 nM. Moreover, in assay [1], the Ki is 10 to 50 nM; the “Ki(D2)/Ki(D3)” value was “+ (between 10 and 50)”.

Regarding `CCCc1ccc(S(=O)(=O)Nc2ccc([C@@H]3CCN(CCC)C3)cc2)s1` [Example 60, 5-Propyl-thiophene-2-sulfonic acid [4-((S)-1-propyl-pyrrolidin-3-yl)-phenyl]-amide], the inhibition constant Ki at human 5-HT6 receptor lay in the range of 10 to 50 nM. Besides, in assay [1], the Ki is less than 1 nM; the “Ki(D2)/Ki(D3)” value is “+ (between 10 and 50)”.

As to “3-Trifluoromethyl-N-[4-((S)-1-propyl-pyrrolidin-3-yl)-phenyl]-benzenesulfonamide [Example 4]”, the Ki lay in the range of 1 to 10 nM on human 5-HT6 receptor and 10 to 50 nM in assay [1]. Further, the “Ki(D2)/Ki(D3)” value in assay [1] was “+ (between 10 and 50)”.

For the compound `CCCN1CC[C@@H](c2ccc(NS(=O)(=O)c3cc(F)cc(C(F)(F)F)c3)cc2)C1.Cl` [Example 103, 3-Fluoro-N-[4-((S)-1-propyl-pyrrolidin-3-yl)-phenyl]-5-trifluoromethyl-benzenesulfonamide hydrochloride], the Ki lay within 10 to 50 nM on human 5-HT6 receptor and 50 to 150 nM in assay [1]. Moreover, the “Ki(D2)/Ki(D3)” value in assay [1] was “++ (between 50 and 100)”.

`C=CCN1CC[C@@H](c2ccc(NS(=O)(=O)c3cccc(C(F)(F)F)c3)cc2)C1` [Example 100, N-[4-((S)-1-Allyl-pyrrolidin-3-yl)-phenyl]-3-trifluoromethyl-benzenesulfonamide] came in with a Ki at human 5-HT6 receptor of 1 to 10 nM. Further, in assay [1], the Ki is 10 to 50 nM; the “Ki(D2)/Ki(D3)” value is “+++ (between 100 and 150)”.

For the compound `CCCN1CC[C@@H](c2ccc(NS(=O)(=O)c3ccc(C(F)(F)F)s3)cc2)C1.Cl` [Example 76, 5-Trifluoromethyl-thiophene-2-sulfonic acid [4-((S)-1-propyl-pyrrolidin-3-yl)-phenyl]-amide hydrochloride], the Ki (at human 5-HT6 receptor; in assay [1]) was 1 to 10 nM in each case. Further, in assay [1], the “Ki(D2)/Ki(D3)” value is “+++ (between 100 and 150)”.

Turning to `CCCN1CC[C@@H](c2ccc(NS(=O)(=O)c3ccc(OC(F)(F)F)c(Br)c3)cc2)C1.Cl` [Example 61, 3-Bromo-N-[4-((S)-1-propyl-pyrrolidin-3-yl)-phenyl]-4-trifluoromethoxy-benzenesulfonamide hydrochloride], the Ki is 10 to 50 nM on human 5-HT6 receptor and 1 to 10 nM in assay [1]. Also, the “Ki(D2)/Ki(D3)” value in assay [1] is “++ (between 50 and 100)”.
